Reference: patent US20100160391A1, “Substituted Aminopyridines as Fluorescent Reporters for Amide Hydrolases” (priority 2006, published 2010)
Marks after values point to notes of the source that are not given here.

Tests used:
[1] = target: T1, microsomal fatty acid amide hydrolase (FAAH) (Homo sapiens, UniProt O00519); assay: Lowest detection limits of microsomal FAAH toward colorimetric and fluorescent substrates; assay type: biochemical
T1 construct: made in house; host or cells: Trichoplusia ni High Five cells infected with recombinant baculovirus Ac-hFAAH; microsomal fraction
T1 sequence (O00519 1-579): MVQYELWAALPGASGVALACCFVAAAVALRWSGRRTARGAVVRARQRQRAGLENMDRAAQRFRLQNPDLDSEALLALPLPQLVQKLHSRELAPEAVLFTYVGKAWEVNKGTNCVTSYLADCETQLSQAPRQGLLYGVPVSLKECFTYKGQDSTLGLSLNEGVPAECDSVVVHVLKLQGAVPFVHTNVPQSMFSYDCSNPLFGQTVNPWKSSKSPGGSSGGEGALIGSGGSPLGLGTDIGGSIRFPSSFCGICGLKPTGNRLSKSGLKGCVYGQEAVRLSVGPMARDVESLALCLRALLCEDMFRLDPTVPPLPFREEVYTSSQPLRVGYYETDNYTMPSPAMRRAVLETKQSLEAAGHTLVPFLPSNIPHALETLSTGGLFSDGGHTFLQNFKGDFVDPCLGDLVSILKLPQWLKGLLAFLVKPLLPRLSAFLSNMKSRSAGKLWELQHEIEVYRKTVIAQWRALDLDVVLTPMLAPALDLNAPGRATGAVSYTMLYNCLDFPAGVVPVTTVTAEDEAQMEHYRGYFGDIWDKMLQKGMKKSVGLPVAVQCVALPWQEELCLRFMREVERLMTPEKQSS
Method: (§1) Preparation of recombinant human FAAH. Transgenic expression of the human FAAH in a baculovirus system was performed by following the method described in Nishi et al., Arch. Biochem. Biophys., 445:115-123 (2006). The cDNA encoding human FAAH (GenBank Accession No. NM_001441) was amplified by PCR using a human liver cDNA library (Invitrogen; Carlsbad, Calif.) as a template. The primer pair was 5′-[…]-3′ and 5′-[…]-3′. BglII and EcoRI endonuclease sites (underlined) were incorporated just upstream of the start codon and downstream of the stop codon of the coding sequence of FAAH, respectively. The PCR products were cloned into a pCR2.1 vector (Invitrogen) and the nucleotide sequence was verified by DNA sequencing. The cDNA fragments were then excised and directionally ligated to the BglII and EcoRI sites of the baculovirus transfer vector pAcUW21 (Lopez-Ferber et al., Baculovirus transfer vectors, in “Baculovirus Expression Protocols,” Richardson (Ed.), pp 25-63, Humana Press, Totowa, N.J., 1995). Recombinant baculoviruses harboring the human FAAH gene, Ac-hFAAH, were generated by co-transfection of Spodoptera frugiperda-derived Sf21 cells with the recombinant transfer vector plasmid and Bsu36I-cleaved BacPAK6 viral DNA (Clontech Laboratories; Mountain View, Calif.) as described in O'Reilly et al., Baculovirus Expression Vectors: A Laboratory Manual, Oxford University Press, New York, 1992. Trichoplusia ni-derived High Five cells (1×10^6 cells/ml) were inoculated with a high titer of Ac-hFAAH. At 72 hours post-infection, the infected cells were harvested by centrifugation at 2,000×g for 20 min at 4° C. and suspended in 50 mM Tris-HCl (pH 8.0) containing 150 mM NaCl, 1 mM EDTA, 1 μM pepstatin, 100 μM leupeptin, and 0.1 mg/ml aprotinin. The cell suspension was then homogenized using a Polytron homogenizer and centrifuged at 10,000×g for 20 min at 4° C. The microsomal fraction was collected by ultracentrifugation of the supernatant at 100,000×g for 60 min at 4° C. The pellet was resuspended in 20 mM Tris-HCl (pH 8.0) containing 10% (w/v) glycerol and 1% (w/v) Triton-X 100 and stored at −80° C. until use.
Comparison of the lowest detection limits of protein concentration of FAAH toward colorimetric and fluorescent substrates. In general, all assays were performed in 96-well styrene flat-bottom microtiter plates with a Spectra Max M2 spectrophotometer at 37° C. for […]. The total volume of each well was 201 μl consisting of 0.1 M sodium phosphate buffer (pH 8.0) (190 μl) containing 1% glycerol and 0.1% Triton-X 100, stock or diluted protein solution (10 μl), and the substrate solution (1 μl) in ethanol (final concentration 200 μM for 10, 11, 13 or 14) or in DMSO (final concentration 25 μM for 12, 15, or 16; 50 μM for 17). The lowest detection limits of microsomal fatty acid amide hydrolase (FAAH) by substrates were determined by the fact that the signal at 10 min after kinetic measurements are equal to or over three times the noise or basal line at 0 min. Colorimetric substrate (16) assays were performed in clear 96-well microtititer plates using an absorbance wavelength at 382 nm. The fluorescent substrates containing 5-amino-2-methoxypyridine (e.g., 10, 13) were measured at an excitation wavelength (302 nm), emission wavelength (396 nm), and auto cutoff wavelength (325 nm). Similarly, the fluorescent substrates containing 5-amino-2-methoxy-6-methylpyridine (e.g., 11, 14, and 17) were measured at an excitation wavelength (304 nm), emission wavelength (392 nm), and an auto cutoff wavelength of 325 nm. In addition, an excitation wavelength (366 nm), emission wavelength (496 nm), and auto cutoff wavelength (495 nm) were used for the substrates (e.g., 12 and 15) containing 7-amino-4-trifluoromethyl coumarin.

[2] = target: T2, fatty acid amide hydrolase (FAAH) (Homo sapiens, UniProt O00519); assay: Kinetic study of FAAH toward substrates; assay type: biochemical
T2 construct: made in house; host or cells: Trichoplusia ni High Five cells infected with recombinant baculovirus Ac-hFAAH; microsomal fraction
T2 sequence (O00519 1-579): T1 sequence (O00519 1-579)
Method: as §1
Kinetic study. The kinetic assays were also performed as described above for the sensitivity assay. Briefly, a total volume of 201 μl contained 0.1 M sodium phosphate buffer (pH 8.0) (190 μl) with 1% glycerol and 0.1% Triton-X 100, protein solution (10 μl), and substrate solution (1 μl). The protein content was 0.67 μg per well (201 μl). The concentration of substrate (13) in DMSO was 200, 100, 50, 25, 12.5, 6.25, 3.13, 1.56, or 0.78 μM. Similarly, the concentration of substrate (17) in DMSO was 100, 50, 25, 12.5, 6.25, 3.13, 1.56, 0.78, or 0.39 μM. Four replicates were applied for each concentration. Reported kinetic data (km and Vmax) were analyzed by the SigmaPlot Enzyme Kinetics software (2001) using the Michaelis-Menten equation for all concentrations.

[3] = tested on: amidases, microsomes from High Five cells; assay: Specific activity, microsomes from High Five cells; details: pH 8.0, 37° C.; NM = not measurable at the same protein concentration as other substrates
Method: Preparation of recombinant human FAAH. Transgenic expression of the human FAAH in a baculovirus system was performed by following the method described in Nishi et al., Arch. […] The cDNA encoding human FAAH (GenBank Accession No. NM—001441) was amplified by PCR using a human liver cDNA library (Invitrogen; Carlsbad, Calif.) as a template. The primer pair was 5′-[sequence]-3′ and 5′-[sequence]-3′. BglII and EcoRI endonuclease sites (underlined) were incorporated just upstream of the start codon and downstream of the stop codon of the coding sequence of FAAH, respectively. The PCR products were cloned into a pCR2.1 vector (Invitrogen) and the nucleotide sequence was verified by DNA sequencing. The cDNA fragments were then excised and directionally ligated to the BglII and EcoRI sites of the baculovirus transfer vector pAcUW21 (Lopez-Ferber et al., Baculovirus transfer vectors, in “Baculovirus Expression Protocols,” Richardson (Ed.), pp 25-63, Humana Press, Totowa, N.J., 1995). Recombinant baculoviruses harboring the human FAAH gene, Ac-hFAAH, were generated by co-transfection of Spodoptera frugiperda-derived Sf21 cells with the recombinant transfer vector plasmid and Bsu36I-cleaved BacPAK6 viral DNA (Clontech Laboratories; Mountain View, Calif.) as described in O'Reilly et al., Baculovirus Expression Vectors: A Laboratory Manual, Oxford University Press, New York, 1992. Trichoplusia ni-derived High Five cells (1×10^6 cells/ml) were inoculated with a high titer of Ac-hFAAH. At 72 hours post-infection, the infected cells were harvested by centrifugation at 2,000×g for 20 min at 4° C. and suspended in 50 mM Tris-HCl (pH 8.0) containing 150 mM NaCl, 1 mM EDTA, 1 μM pepstatin, 100 μM leupeptin, and 0.1 mg/ml aprotinin. The cell suspension was then homogenized using a Polytron homogenizer and centrifuged at 10,000×g for 20 min at 4° C. […]
Comparison of the lowest detection limits of protein concentration of FAAH toward colorimetric and fluorescent substrates. […] The lowest detection limits of microsomal fatty acid amide hydrolase (FAAH) by substrates were determined by the fact that the signal at 10 min after kinetic measurements are equal to or over three times the noise or basal line at 0 min. Colorimetric substrate (16) assays were performed in clear 96-well microtititer plates using an absorbance wavelength at 382 nm. The fluorescent substrates containing 5-amino-2-methoxypyridine (e.g., 10, 13) were measured at an excitation wavelength (302 nm), emission wavelength (396 nm), and auto cutoff wavelength (325 nm). Similarly, the fluorescent substrates containing 5-amino-2-methoxy-6-methylpyridine (e.g., 11, 14, and 17) were measured at an excitation wavelength (304 nm), emission wavelength (392 nm), and an auto cutoff wavelength of 325 nm. […]

[4] = pH 8.0, 37° C., 0.67 μg protein per well, Michaelis-Menten

In the case of CCCCCCCC(=O)Nc1ccc(OC)nc1 [Compound 13, N-(6-methoxypyridin-3-yl) octanamide], the “base line, Average” value ([1]; 0 min, protein 0.11 (13), 0.67 (14), 100 (15), 0.5 (17) μg/well, 200 μM (13),(14), 25 μM (15), 50 μM (17)) is reported as 302 RFU, the “signal, Average” value ([1]; 10 min, protein 0.11 (13), 0.67 (14), 100 (15), 0.5 (17) μg/well, 200 μM (13),(14), 25 μM (15), 50 μM (17)) is reported as 1091* RFU and the “difference between (13) and (17) in limit of protein detection” value ([1]; Table 2) is reported as 5 times. The “Protein, lowest detection limit of microsomal FAAH (signal at 10 min ≥ three times base line)” value ([1]; pH 8.0, 37° C., 200 μM (13), (14), 50 μM (17)) was 0.11 μg/200 μ′, the “lowest detection limit of protein” value ([1]; signal at 10 min equal to three times base line) was 0.55 μg protein/ml and the Selectivity ratio ([2]; Vmax/Km of substrate over that of oleamide (5.5 × 10^−2)) was 74.5. For the same compound, the Km [2, 4] was 74.9 µM, the Vmax [2, 4] was 305 nmol/min/mg and the “difference in Vmax between (13) and (17)” value ([2]; saturating substrate concentration) was 8 fold. The “Specific activity, Microsomes from High Five cells” value [3] was 793 ± 38.9 pmol/min/mg protein.
